Assay results from US8785374B2, “Inhibitors of mammalian tight junction opening” (Alba Therapeutics Corporation, priority 2007, dated 2014).
Non-standard residues stand in square brackets, D forms with d. No end group written: not given here. pGlu = O=C1CC[C@@H](C(=O)O)N1

Columns and labels:
[1] = test system: CaCo2 monolayers (tight junctions); experiment: Inhibition of agonist-induced Lucifer Yellow flux through CaCo2 monolayers; settings: inhibition of the increase in Lucifer Yellow permeability induced by SEQ ID NO:70 (FCIGRL); CaCo2 monolayers
Description: (§1) Measurement of the Inhibition of the Decrease in Trans Epithelial Electric Resistance (TEER) and Epithelial Flux of a Fluorescent Marker Lucifer Yellow
(§2) Antagonists of tight junctions can be identified by their ability to prevent or decrease the enhancement of the flux of compounds (e.g. Lucifer Yellow) through the monolayer induced by agonists of tight junctions (e.g., SEQ ID NO: 70). Antagonists of tight junctions can also be identified by their ability to prevent the decrease in TEER induced by agonists of tight junctions (e.g., SEQ ID NO: 70).
(§3) Tight junction antagonists can be identified using the following method:
(§4) Prepare Modified Hank's Balanced Salt Solution (MHBSS) by obtaining IL bottle of HBSS removing 10 ml of HBSS and replacing it with 10 ml HEPES buffer pH 7.0. Adjust pH to 7.4±0.1 using concentrated NaOH (10N).
(§5) Remove Caco-2 cells from incubator, grown on 12-well, […], polycarbonate Transwell® filters (Corning) and record passage number, date cells seeded and age in days.
(§6) Aspirate cell culture medium from both the apical (AP) and basolateral (BL) compartments, replacing with 0.5 ml and 1.5 ml of MHBSS, respectively. Incubate cells at 37° C. for 30 minutes.
(§7) Prepare a stock solution of the Antagonist Pretreatment Solution by dissolving the appropriate amount of antagonist in MHBSS. Vortex or sonicate the solution until it is clear then adjust pH to 7.4±0.1 using 1N NaOH. Preincubate each filter for 30 min with these solutions at 37° C. and 50 RPM.
(§8) Prepare stock solutions of Antagonist Treatment Solution by dissolving appropriate amounts of antagonist and agonist (for example, a peptide agonist such as a peptide having the sequence FCIGRL (SEQ ID NO: 70)) in 7.5 mM Lucifer Yellow solution in MHBSS. Vortex or sonicate the solution until it is clear then adjust pH to 7.4±0.1 using 1N NaOH.
(§9) Aspirate Antagonist Pretreatment Solution from the apical compartment of each filter (n=3 per condition) and replace with 0.5 ml of control and test solutions.
(§10) Place all plates into incubator set at 37° C. (±0.2), 50 RPM (±5) for a total of 180 minutes.
At t=60, 120 and 180 minutes remove 100 μl from each basolateral compartment and place it in a 96-well plate for Lucifer Yellow analysis, replace with 100 μl of HBSS.
Make a Lucifer Yellow standard curve with the following dilutions (7500 μM, 3750 μM, 750 μM, 375 μM, 75 μM, 37.5 μM, 7.5 μM, 3.75 μM, 0.75 μM) and pipette 100 μL of each into a 96-well plate except for the first three standards mentioned above which require a 1:10 dilution prior to transferring to the 96-well plate.
At t=0 make 1:10 dilutions of each starting Antagonist Treatment Solution mentioned above and pipette 100 μL of each into a 96-well plate.
At t=180 make 1:10 dilutions of Antagonist Treatment Solution from the apical compartment of each filter and pipette 100 μL of each into the 96-well plate.
Analyze each 96-well plate in a Tecan Spectra Fluor Plus using Magellan at 485 and 535 nm.
(§11) Cells: Caco-2 cells passage 40-60 grown on Transwell® plates for 21-28 days
(§12) SEQ ID NO: 70 is a 6-mer peptide tight junction agonist having the sequence FCIGRL. See US patent publication US 2005/0059593 A1. In the following tables + indicates attenuation of the effects of the tight junction agonist were observed and − indicates no attenuation of the effects of the tight junction agonist were observed.

[2] = test system: CaCo2 monolayers (tight junctions); experiment: Inhibition of agonist-induced decrease in trans epithelial electric resistance (TEER) of CaCo2 monolayers; settings: inhibition of the reduction in TEER induced by SEQ ID NO:70 (FCIGRL); CaCo2 monolayers
Description: as §1, §2, §3, §4, §5, §6
Using the MilliCell®-ERS instrument (Millipore), measure and record the transepithelial electrical resistance (TEER) across each filter and record.
as §7, §8, §9, §10
At t=30, 60, 120 and 180 minutes, measure and record the transepithelial electrical resistance (TEER) across each filter using the MilliCell-ERS instrument.
as §11, §12

Substance	Reduced LY Permeability [1]	Prevented TEER Reduction [2]
Glp-Pro-Asp ([pGlu]-Pro-Asp) [SEQ ID NO: 59]	−	−
Glp-Pro-Gln ([pGlu]-Pro-Gln) [SEQ ID NO: 53]	−	−
Glp-Pro-Glu ([pGlu]-Pro-Glu) [SEQ ID NO: 65]	−	−
Glp-Pro-Gly ([pGlu]-Pro-Gly) [SEQ ID NO: 35]	+	+
Glp-Pro-His ([pGlu]-Pro-His) [SEQ ID NO: 60]	−	−
Glp-Pro-Leu ([pGlu]-Pro-Leu) [SEQ ID NO: 61]	−	−
Glp-Pro-Lys ([pGlu]-Pro-Lys) [SEQ ID NO: 64]	−	−
Glp-Pro-Met ([pGlu]-Pro-Met) [SEQ ID NO: 68]	−	+
Glp-Pro-Phe ([pGlu]-Pro-Phe) [SEQ ID NO: 66]	−	−
Glp-Pro-Pro ([pGlu]-Pro-Pro) [SEQ ID NO: 57]	−	+
Glp-Pro-Ser ([pGlu]-Pro-Ser) [SEQ ID NO: 56]	−	−
Glp-Pro-Trp ([pGlu]-Pro-Trp) [SEQ ID NO: 58]	−	−
Glp-Pro-Tyr ([pGlu]-Pro-Tyr) [SEQ ID NO: 69]	−	+
Glp-Pro-Val ([pGlu]-Pro-Val) [SEQ ID NO: 63]	−	−
Glp-Ser-Gly ([pGlu]-Ser-Gly) [SEQ ID NO: 38]	−	−
Glp-Thr-Gly ([pGlu]-Thr-Gly) [SEQ ID NO: 42]	−	−
Glp-Trp-Gly ([pGlu]-Trp-Gly) [SEQ ID NO: 49]	−	−
Glp-Tyr-Gly ([pGlu]-Tyr-Gly) [SEQ ID NO: 44]	−	−
Glp-Val-Gly ([pGlu]-Val-Gly) [SEQ ID NO: 36]	−	−
Glu-Pro-Gly (EPG; Tight junction antagonist) [SEQ ID NO: 23]	+	+

Substance	Reduced LY Permeability [1]	Prevented TEER Reduction [2]
Gly-(d)Pro-(d)Gln (Gly-[dP]-[dQ]) [SEQ ID NO: 16]	−	−
Gly-(d)Pro-Gln (Gly-[dP]-Gln) [SEQ ID NO: 14]	−	−
Gly-Pro-(d)Gln (Gly-Pro-[dQ]) [SEQ ID NO: 15]	−	−
Gly-Pro-Gln (GPQ; Tight junction antagonist) [SEQ ID NO: 13]	+	+
Gly-Pro-Gly (GPG; Tight junction antagonist) [SEQ ID NO: 22]	+	+
His-Pro-Gly (HPG; Tight junction antagonist) [SEQ ID NO: 18]	+	+
Ile-Pro-Gly (IPG; Tight junction antagonist) [SEQ ID NO: 31]	+	+
Leu-Pro-Gly (LPG; Tight junction antagonist) [SEQ ID NO: 25]	+	+
Leu-Val-Gln-Pro-Gly (LVQPG; Tight junction antagonist) [SEQ ID NO: 4]	+	+
Lys-Pro-Gly (KPG; Tight junction antagonist) [SEQ ID NO: 24]	+	+
Met-Pro-Gly (MPG; Tight junction antagonist) [SEQ ID NO: 26]	+	+
Phe-Pro-Gly (FPG; Tight junction antagonist) [SEQ ID NO: 21]	+	+
Pro-Pro-Gly (PPG; Tight junction antagonist) [SEQ ID NO: 33]	−	−
Ser-Pro-Gly (SPG; Tight junction antagonist) [SEQ ID NO: 28]	+	+
Thr-Pro-Gly (TPG; Tight junction antagonist) [SEQ ID NO: 30]	+	−
Trp-Pro-Gly (WPG; Tight junction antagonist) [SEQ ID NO: 32]	+	+
Tyr-Pro-Gly (YPG; Tight junction antagonist) [SEQ ID NO: 29]	+	+
VLVQPG [SEQ ID NO: 3]	+	+
Val-Gln-Pro-Gly (VQPG; Tight junction antagonist) [SEQ ID NO: 5]	+	+
Val-Pro-Gly (VPG; Tight junction antagonist) [SEQ ID NO: 34]	+	−
